US8058243B2, “Method for treating a brain cancer with ifenprodil” (HSC Research and Development Limited Partnership, priority 2006, dated 2011)
Like-named read-outs stand apart in the source and are kept apart here.

What was measured:
[1] = system: ptc1+/− medulloblastoma precursor cells (neurosphere cultures); test: Medulloblastoma tumor sphere MTT proliferation EC50; assay type: cell-based, mouse
Description: (§1) Astrocyte Screen and Neurosphere Selectivity Assessment. […] Murine Medulloblastoma Generation and Culture. […] Flow Cytometry. […] Results

[2] = system: nestin expression in NPCs; test: Flow cytometric analysis of nestin in NPCs; assay type: cell-based, mouse
Description: (d) Flow cytometric analysis of the neural precursor marker nestin in NPCs after 2 d of treatment with ifenprodil (5 μM) or vehicle.

[3] = system: hGBM1 precursors (WHO grade IV GBM); test: Human glioblastoma precursor EC50 (hGBM1); assay type: cell-based
[4] = system: hGBM2 precursors (WHO grade IV GBM, giant cell variant); test: Human glioblastoma precursor EC50 (hGBM2); assay type: cell-based
[5] = system: mouse NSC neurosphere cultures; test: Dose-response curves and EC50, neurosphere MTT proliferation, 7 days; assay type: cell-based
[6] = system: Ptch1+/− Trp53−/− medulloblastoma neurosphere cultures; test: Tumor sphere MTT proliferation EC50; assay type: cell-based, mouse; settings: cultures derived from mouse cerebellar tumor samples; read-out: Ptch1+/− Trp53−/− neurosphere EC50
Description: as §1

[7] = system: murine neural precursor cells (neurosphere cultures); test: HTS of LOPAC library against secondary neurosphere cultures, MTT proliferation assay at 3 μM, day 7 (z score, P value); assay type: cell-based, mouse
[8] = system: neural precursors derived from human fetal CNS tissue (hFetal); test: Human fetal neural precursor EC50; assay type: cell-based
[9] = system: NPC colony formation; test: Inhibition of colony formation by bromocriptine with and without (±)-sulpiride; assay type: cell-based, mouse
Description: (e) Inhibition of colony formation by bromocriptine in cultures with and without (±)-sulpiride supplementation. Normalized mean and s.e.m. values of three independent triplicate cultures are shown. […] Scale bars, 500 mm.

[10] = cited from earlier work
[11] = system: ptc1+/− tumor cell growth; settings: cited from earlier work
[12] = system: medulloblastoma formation; settings: mice; cited from earlier work
[13] = system: NSC fraction of neurosphere cultures; settings: 7 day pretreatment at estimated EC75 (apomorphine EC50); 2,000 or 1,000 cells
[14] = Mus musculus, ptc1+/− medulloblastoma derived neurospheres, read-out: Medulloblastoma Neurosphere EC50
[15] = cultures derived from mouse cerebellar tumor samples, read-out: Ptch1+/− neurosphere EC50
[16] = 168 h, normal mouse neurosphere cultures, MTT, 7 days, read-out: Neurosphere EC50
[17] = Mus musculus, read-out: EC 50% Neurosphere, Table 5
[18] = Mus musculus, Table 8, read-out: Neurosphere EC50
[19] = LOPAC library screen, 3 μM, MTT, secondary neurosphere cultures, day 7
[20] = LOPAC primary screen, neurosphere MTT proliferation, 3 μM, day 7
[21] = yes/no: significantly inhibited neurosphere proliferation (P<0.01) in the primary screen
[22] = Table 8, read-out: Neurosphere EC50
[23] = ptc1+/− medulloblastoma derived neurospheres, read-out: Medulloblastoma Neurosphere EC50
[24] = normal mouse neurosphere cultures, MTT, 7 days, read-out: Neurosphere EC50
[25] = read-out: EC 50% Neurosphere, Table 5

CC(C(O)c1ccc(O)cc1)N1CCC(Cc2ccccc2)CC1 (stereo not drawn) [Ifenprodil (9), Ifenprodil]
EC50 [1, 14]: 451 nM | EC50 [1, 15]: 451 nM | nestin negative cells ([2]; 2 d treatment, 5 μM, vehicle 20%): 63% | expression of the immature NPC marker nestin ([2]; treatment for 2 d): substantially decreased | EC50 ([3]; Homo sapiens): 1990 nM | EC50 ([4]; Homo sapiens): 206 nM | EC50 [5, 16]: 616 nM | EC50 [5, 17]: 616 nM | EC50 [5, 18]: 616 nM | EC50 [6]: 807 nM | Z Score [7, 19]: −8.904 | Z score [7, 20]: −8.904 | Activity [7, 21]: yes | EC50 [8]: 420 nM

CC(C)C[C@H]1C(=O)N2CCC[C@H]2[C@]2(O)O[C@](NC(=O)[C@@H]3C=C4c5cccc6[nH]c(Br)c(c56)C[C@H]4N(C)C3)(C(C)C)C(=O)N12 [(+)-Bromocripline (18), (+)-Bromocripline]
EC50 [5, 22]: 1190 nM | EC50 ([9]; with (±)-sulpiride supplementation, read-out: EC50 of inhibition of colony formation, with sulpiride): 2500 nM | EC50 ([9]; without sulpiride, read-out: EC50 of inhibition of colony formation, without sulpiride): 1200 nM

O[Si](CCCN1CCCCC1)(c1ccc(F)cc1)C1CCCCC1 (stereo not drawn) [p-F-HHSiD (8), p-fluoro-hexahydrosila-difenidol]
EC50 [1, 15]: 1120 nM | EC50 [1, 23]: 1120 nM | EC50 [3]: 12600 nM | EC50 [4]: 1230 nM | EC50 [5, 22]: 441 nM | EC50 [5, 24]: 441 nM | EC50 [5, 25]: 441 nM | EC50 [6]: 1370 nM | EC50 [8]: 10600 nM

CN1CCc2cccc3c2[C@H]1Cc1ccc(O)c(O)c1-3 [(R)-(−)-Apomorphine (6), (R)-(−)-Apomorphine]
EC50 [1, 14]: 168 nM | EC50 [1, 15]: 168 nM | EC50 ([3]; Homo sapiens): 14600 nM | EC50 ([4]; Homo sapiens): 310 nM | EC50 [5, 16]: 350 nM | EC50 [5, 17]: 350 nM | EC50 [5, 18]: 350 nM | Activity [7]: yes | Z Score [7, 19]: −11.27 | Z score [7, 20]: −11.274 | Effective in vivo concentrations [10]: 6 to 7 µM

CC1=C2C[C@H]3[C@@H](CC=C4C[C@@H](O)CC[C@@]43C)[C@@H]2CC[C@]12O[C@@H]1C[C@H](C)CN[C@H]1[C@H]2C [Cyclopamine (16), Cyclopamine]
EC50 ([1]; Mus musculus, read-out: Ptch1+/− neurosphere EC50): 1000 nM | reported concentration for inhibition of ptc1+/− tumor cell growth in vitro [11]: 5 µM

O=C(Nc1ccccc1)C12CC1/C(=N\O)c1ccccc1O2 (stereo not drawn) [PHCCC]
medulloblastoma formation in vivo [12]: attenuate medulloblastoma formation

Nc1ccc(CCN2CCN(c3cccc(C(F)(F)F)c3)CC2)cc1 [PAPP (14), p-aminophenethyl-m-trifluoromethylphenyl piperazine]
EC50 [1, 15]: 169 nM | EC50 [1, 23]: 169 nM | secondary neurosphere formation upon re-culture in the absence of drug (replating efficiency) [13]: reduction in replating efficiency | expression of the immature NPC marker nestin [2]: substantially decreased | EC50 [3]: 1870 nM | EC50 [4]: 310 nM | EC50 [5, 22]: 31 nM | EC50 [5, 24]: 31 nM | EC50 [5, 25]: 31 nM | EC50 [6]: 97 nM | Activity [7]: yes | Z Score [7]: −10.73 | Z score [7]: −10.728 | EC50 [8]: 220 nM

CCN1CCCC1CNC(=O)c1cc(S(N)(=O)=O)ccc1OC (racemic) [(±)-sulpride, reference compound]
rescue of the inhibitory effects of bromocriptine ([9]; colony formation and MTT values): able to competitively rescue the inhibitory effects | Z score [7, 20]: −0.284 | Activity [7, 21]: no
